Measured values from US7008949B2, “Heterocyclic compounds which inhibit leukocyte adhesion mediated by α4 integrins” (Elan Pharmaceuticals, Inc., priority 2003, dated 2006).
Values after ≈ are worked out from the molar mass of the structure shown.

How the values were obtained:
α4β1 Integrin = biological target: T1, α4β1 Integrin (Homo sapiens, UniProt P05556+P13612); experiment: α4β1 Integrin Adhesion Assay: Jurkat cell adhesion to human plasma fibronectin; format: cell-based; conditions: Jurkat cells
T1 construct: endogenous in cells; host or cells: Jurkat cells
Method: 96 well plates (Costar 3590 EIA plates) were coated with human fibronectin (Gibco/BRL, cat #33016-023) at a concentration of 10 μg/mL overnight at 4° C. The plates were then blocked with a solution of bovine serum albumin (BSA; 0.3%) in saline. Jurkat™ cells (maintained in log phase growth) were labeled with Calcein AM according to the manufacturer's instructions, and suspended at a concentration of 2×10^6 cells/mL in Hepes/Saline/BSA. The cells were then exposed to test and control compounds for 30 minutes at room temperature before transfer to individual wells of the fibronectin coated plate. Adhesion was allowed to occur for 35 minutes at 37° C. The wells were then washed by gentle aspiration and pipetting with fresh saline. Fluorescence associated with the remaining adherent cells was quantified using a fluorescence plate reader at EX 485/EM 530.
Cell cultures were prepared by first splitting the stationary phase Jurkat™ cells at 1:10 on day one, and 1:2 on day two to perform assay on day 3. The cells split 1:10 on day one were split 1:4 on day 3 for a day 4 assay.
The assay plates were prepared by first making a working solution of Gibco/BRL Human Fibronectin (cat # 33016-023) in PBS++, at 10 μg/mL.
A Costar 3590 EIA plate was then coated with 50 μL/well for 2 hours at room temperature (thought it can also be left overnight at 4° C.). Finally the plate was asperated and blocked with Hepes/Saline Buffer, 100 μL/well, for 1 hour at RT followed by washing three times with 150 μL of PBS++.
Compound dilutions were accomplished by preparing 1:3 serial dilutions of compounds as follows. For each plate (4 compounds/plate) 600 μL were added to 4 Bio-Rad Titertubes in a Titertube rack. Enough compound was added to each appropriate tube to give a 2× concentration using methods well known in the art. Using Falcon Flexiplates, 100 μL of Hepes/Saline buffer or human serum were added to rows B through G. A multi-channel pipetter set to 180 μL was used to with four tips spaced evenly the pipetter. Each set of four tubes was mixed 5 times and 180 μL of 2× compound was transferred to the first column of each compound dilution in Row B, leaving Row A empty. 180 μL were added to the other wells in Row A. Serial dilutions were performed down the plate by transferring 50 μL to the next dilution and mixing 5 times, changing tips each time after mixing. Dilutions were stopped at Row F. Row G had no compound present.
A 20 μg/mL solution in Hepes/Saline buffer or human serum, of 21/6 antibody was the positive control and was set aside in a reagent trough to add to cell suspension plate.
The cell staining was accomplished by first harvesting the log-phase Jurkat™ cells by centrifugation in 50 mL tubes (1100 rpm for 5 minutes). The cells were resuspended in 50 mL PBS++, spun, and resuspend in 20 mL PBS++. The cells were stained by adding 20 μL of Calcein AM for 30 minutes R.T. The volume was brought to 50 mL with Hepes/Saline buffer and the cells were counted, spun, and resuspend to 2×10^6 cells/mL in Hepes/Saline buffer or human serum.
The compounds were incubated using the following procedure. In a new flexiplate, 65 μL of stained cells were added to Rows B through H. Then 65 μL of 2× compounds were added to the appropriate rows following the plate setup and mixed 3×. 65 μL of 2×-21/6 antibody were added to Row H and mixed 3×. Finally the plate was incubated at room temperature for 30 minutes.
Fibronectin adhesion was measured using a fluorescent plate reader at EX 485/EM 530 after the following work up procedure. After incubation, the cells were mixed 3× and 100 μL were transferred to the Fibronectin coated plates and incubated at 37° C. for about 35 minutes. Each plate was washed, row by row, by gently pipetting 100 μL of R.T. PBS++ down the sides of the wells and turning the plate 90 degrees to aspirate. This procedure was repeated for a total of 3 washes. Each well was filled with 100 μL after washing by pipetting down the side of the well. […]

[1] = Cassette dosing and serum analysis for determination of oral bioavailability; format: in vivo, rat; conditions: male SD rats, oral cassette of 6 compounds, total dose 10 mg/kg, plasma at 4, 8, 12 h
Method: The oral bioavailability was screened by dosing rats with a cassette, i.e. mixture of 6 compounds per dosing solution. The cassette included 5 test articles and a standard compound, for a total dose of 10 mg/kg. Each compound/test article was converted to the sodium salt with equimolar 1 N NaOH and dissolved in water at 2 mg/mL. The cassette was prepared by mixing equal volumes of each of the six solutions. The cassette dosing solution was mixed well and then the pH was adjusted to 7.5–9. The dosing solution was prepared the day before the study and stirred overnight at room temperature.
Male Sprague Dawley (SD) rats from Charles River Laboratories, 6–8 weeks old were used in this screen. Rats were quarantined for at least one day and had continuous access to food and water. On the night before the administration of the cassette, the rats were fasted for approximately 16 h.
Four SD rats were assigned in each cassette. A single dose of the dosing solution was administered orally to each rat. The dosing volume (5 mL/kg) and time were recorded and rats were fed 2 h after dosing.
Blood samples were collected via cardiac puncture at the following time points: 4 h, 8 h and 12 h. Immediately prior to blood collection, rats were anesthetized with CO2 gas within 10–20 seconds. After the 12-hour samples were collected, the rats were euthanized via CO2 asphyxiation followed by cervical dislocation.
Blood samples were kept in heparinized microtainer tubes under sub-ambient temperature (4° C.) before they were processed. Blood samples were centrifuged (10000 rpm for 5 minutes) and plasma samples were removed and stored in a −20° C. freezer until analyzed for drug levels. Drug levels in the plasma were analyzed using the following protocol for direct plasma precipitation.
The in vivo plasma samples were prepared in a 1.5 mL 96-well plate, by adding, in order, 100 μL of the test plasma, 150 μL of methanol, followed by vortexing for 10–20 seconds. 150 μL of 0.05 ng/μL of an Internal Standard in acetonitrile were added and vortexed for 30 seconds.
The standard curve samples were prepared in a 1.5 mL 96-well plate, by adding, in order, 100 μL of control mouse plasma, followed by 150 μL of methanol and vortexing for 10–20 seconds. 150 μL of 0.05 ng/μL of an Internal Standard in acetonitrile were added and vortexed for 30 seconds. The samples were spiked with 0–200 ng (10 concentrations) of the compound of interest in 50% methanol to obtain a standard curve range of 0.5 ng/mL–2,000 ng/mL. Again, the sample was vortexed for 30 seconds.
The samples were then spun for 20–30 minutes at 3000 rpm in an Eppendorf microfuge before 80–90% of supernatant was transferred into a clean 96-well plate. The organic solvent was then evaporated until the samples were dry (under N2 at 40° C./30–60 min (ZymarkTurbovap)).
The residue was then dissolved in […] mobile phase (50% CH3OH/0.1% TFA). LC/MS/MS was then run using a PE-Sciex API-3000 triple quadurpole mass spectrometer (SN0749707), Perkin-Elmer, Series200auto-sampler, and shimadzu 10A pump. Acquisition was done with PE-Sciex Analyst (v1.1) and data analysis and quantification were accomplished using PE-Sciex Analyst (v1.1). A 5–50 μL sample volume was injected onto a reverse phase ThermoHypersil DASH-18 column (Keystone 2.0×20 mm, 5 μm, PN: 8823025-701) using a mobile phase of 25% CH3OH, 0.1% TFA-100% CH3OH, 0.1% TFA. The run time was about 8 minutes at a flow rate of about 300 μL/minutes.
The Area Under the Curve (AUC) was calculated using the linear trapezoidal rule from t=0 to the last sampling time tx (see Handbook of Basic Pharmacokinetics, Wolfgang A. Ritschel and Gregory L. Kearns, 5th ed, 1999). AUC^0→tx═S((Cn+Cn+1)/2))·(tn+1−tn)[(μg/mL)h]
In the case of the cassette dosing paradigm, samples at 4, 8 and 12 h post extravascular dosing, the AUC was calculated from t=0 to t=12 h.

[2] = IC50, Cell Adhesion to Human Plasma Fibronectin (With Human Serum), with human serum
[3] = IC50, Cell Adhesion to Human Plasma Fibronectin (Without the Human Serum), without human serum

T1 sequence (P13612 34-1032): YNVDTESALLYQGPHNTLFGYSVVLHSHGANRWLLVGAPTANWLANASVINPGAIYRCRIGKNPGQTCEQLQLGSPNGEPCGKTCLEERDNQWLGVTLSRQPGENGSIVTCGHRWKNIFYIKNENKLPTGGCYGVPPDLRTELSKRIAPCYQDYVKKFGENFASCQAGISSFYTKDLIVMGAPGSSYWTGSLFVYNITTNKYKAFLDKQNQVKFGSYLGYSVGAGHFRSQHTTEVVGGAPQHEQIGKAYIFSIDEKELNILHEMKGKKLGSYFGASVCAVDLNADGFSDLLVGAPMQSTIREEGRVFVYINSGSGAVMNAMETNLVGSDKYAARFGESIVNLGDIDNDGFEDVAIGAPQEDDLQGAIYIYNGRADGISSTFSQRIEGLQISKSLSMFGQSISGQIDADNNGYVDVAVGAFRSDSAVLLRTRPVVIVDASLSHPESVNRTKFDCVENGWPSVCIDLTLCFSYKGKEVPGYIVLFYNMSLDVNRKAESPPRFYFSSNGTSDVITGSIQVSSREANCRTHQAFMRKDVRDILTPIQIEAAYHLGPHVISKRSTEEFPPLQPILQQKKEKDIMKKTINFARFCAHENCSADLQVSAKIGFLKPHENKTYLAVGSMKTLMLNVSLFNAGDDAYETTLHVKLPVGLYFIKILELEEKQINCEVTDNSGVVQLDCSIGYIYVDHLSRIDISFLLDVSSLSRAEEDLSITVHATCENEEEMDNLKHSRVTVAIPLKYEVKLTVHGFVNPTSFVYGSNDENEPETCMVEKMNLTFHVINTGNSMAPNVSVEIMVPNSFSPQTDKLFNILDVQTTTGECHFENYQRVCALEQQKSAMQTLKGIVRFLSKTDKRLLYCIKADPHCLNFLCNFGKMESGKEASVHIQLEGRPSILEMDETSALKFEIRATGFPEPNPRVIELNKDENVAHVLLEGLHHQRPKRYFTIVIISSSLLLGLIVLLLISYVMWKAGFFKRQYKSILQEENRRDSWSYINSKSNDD
T1 sequence (P05556 21-798): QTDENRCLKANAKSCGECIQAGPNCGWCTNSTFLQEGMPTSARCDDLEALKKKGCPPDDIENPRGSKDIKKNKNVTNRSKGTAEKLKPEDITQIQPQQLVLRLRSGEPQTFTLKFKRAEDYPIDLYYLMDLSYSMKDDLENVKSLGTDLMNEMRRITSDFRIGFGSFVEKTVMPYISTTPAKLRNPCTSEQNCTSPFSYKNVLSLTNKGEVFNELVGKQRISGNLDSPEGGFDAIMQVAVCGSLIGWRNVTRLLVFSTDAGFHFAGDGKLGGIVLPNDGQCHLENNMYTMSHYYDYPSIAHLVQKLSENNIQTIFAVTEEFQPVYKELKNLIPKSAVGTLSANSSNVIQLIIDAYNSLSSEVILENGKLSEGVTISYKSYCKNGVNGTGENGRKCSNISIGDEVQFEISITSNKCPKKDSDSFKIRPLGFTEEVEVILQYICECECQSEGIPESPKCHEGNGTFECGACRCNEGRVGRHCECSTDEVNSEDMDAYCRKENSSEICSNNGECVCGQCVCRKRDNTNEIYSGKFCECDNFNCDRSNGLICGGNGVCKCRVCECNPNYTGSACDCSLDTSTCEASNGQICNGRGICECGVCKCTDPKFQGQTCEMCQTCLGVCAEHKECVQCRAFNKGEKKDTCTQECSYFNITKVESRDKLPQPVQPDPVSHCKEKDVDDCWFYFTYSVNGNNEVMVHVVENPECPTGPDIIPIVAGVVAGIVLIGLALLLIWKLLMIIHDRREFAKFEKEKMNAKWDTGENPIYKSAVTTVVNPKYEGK

| Compound | IC50, Cell Adhesion to Human Plasma Fibronectin (With Human Serum) (α4β1 Integrin; with human serum) [µg/mL] | IC50, Cell Adhesion to Human Plasma Fibronectin (Without the Human Serum) (α4β1 Integrin; without human serum) [µg/mL] | AUC (average AUC 0→12 h) [1] | IC50 (α4β1 Integrin; [2]) [µM] | IC50 (α4β1 Integrin; [3]) [µM] |
| --- | --- | --- | --- | --- | --- |
| 2-{2-diethylamino-5-[(4-fluorobenzenesulfonyl)ethylamino]pyrimidin-4-ylamino}-3-(4-dimethylcarbamoyloxyphenyl)propionic acid [Example 9] | 0.106 | 0.001 | 1.564 (μg/mL)h | – | – |
| CCN(CC)c1ncc(N(C)S(=O)(=O)c2ccc(Cl)c(Cl)c2)c(N[C@@H](Cc2ccc(OC(=O)N(C)C)cc2)C(=O)O)n1 [Example 4] | – | – | 0.5965 (μg/mL)h | 0.625 | 0.00625 |
| CCN(CC)c1ncc(N(CC(C)C)S(=O)(=O)c2ccc(F)cc2)c(N[C@@H](Cc2ccc(OC(=O)N(C)C)cc2)C(=O)O)n1 [Example 23, 2-{2-diethylamino-5-[(4-fluorobenzenesulfonyl)isobotylamino]pyrimidin-4-ylamino}-3-(4-dimethylcarbamoyloxyphenyl)propionic acid] | – | – | 0.413 (μg/mL)h | 0.117 | 0.00634 |
| C#CCN(c1cnc(N(CC)CC)nc1N[C@@H](Cc1ccc(OC(=O)N(C)C)cc1)C(=O)O)S(=O)(=O)c1ccc(F)cc1 [Example 27] | – | – | 1.6258 (μg/mL)h | 0.106 | 0.00163 |
| CCN(CC)c1ncc(N(C)S(=O)(=O)c2ccc(F)c(F)c2)c(N[C@@H](Cc2ccc(OC(=O)N(C)C)cc2)C(=O)O)n1 [Example 3] | – | – | 1.5483 (μg/mL)h | 0.251 | 0.0033 |
| CCN(CC)c1ncc(N(C)S(=O)(=O)c2cc(F)ccc2F)c(NC(Cc2ccc(OC(=O)N(C)C)cc2)C(=O)O)n1 (stereo not drawn) [Example 25] | 6.72 (≈ 11.1 µM) | 0.006 (≈ 0.00989 µM) | 0.4559 (μg/mL)h | – | – |
| 2-{2-diethylamino-5-[(4-chlorobenzenesulfonyl)ethylamino] pyrimidin-4-ylamino}-3-(4-dimethylcarbamoyloxyphenyl)propionic acid [Example 13] | 0.075 | 0.004 | 1.5806 (μg/mL)h | – | – |
| 2-{2-diethylamino-5-[(4-fluorobenzenesulfonyl)methylamino]pyrimidin-4-ylamino}-3-(4-dimethylcarbamoyloxyphenyl)propionic acid [Example 1] | 0.318 | 0.002 | 2.3308 (μg/mL)h | – | – |
| CCN(CC)c1ncc(N(C)S(=O)(=O)c2cccc(F)c2)c(N[C@@H](Cc2ccc(OC(=O)N(C)C)cc2)C(=O)O)n1 [Example 7, 2-{2-diethylamino-5-[(3-fluorobenzenesulfonyl)methylaminol]pyrimidin-4-ylamino}-3-(4-dimethylcarbamoyloxyphenyl) propionic acid] | – | – | 0.717 (μg/mL)h | 0.997 | 0.00139 |
| CCN(CC)c1ncc(N(C)S(=O)(=O)c2ccc(F)cc2F)c(N[C@@H](Cc2ccc(OC(=O)N(C)C)cc2)C(=O)O)n1 [Example 17] | – | – | 1.0075 (μg/mL)h | 0.0396 | 0.00165 |
| CCN(CC)c1ncc(N(CC)S(=O)(=O)c2cccc(F)c2F)c(NC(Cc2ccc(OC(=O)N(C)C)cc2)C(=O)O)n1 (stereo not drawn) [Example 26, 2-{2-diethylamino-5-[(2.3-difluorobenzenesulfonyl)ethylamino]pyrimidin-4-ylamino}-3-(4-dimethylcarbamoyloxyphenyl) propionic acid] | 0.01848 (≈ 0.0298 µM) | 0.001 (≈ 0.00161 µM) | 0.3392 (μg/mL)h | – | – |
| 2-{2-diethylamino-5-[(benzenesulfonyl)methylamino]pyrimidin-4-ylamino}-3-(4-dimethylcarbamoyloxyphenyl)propionic acid [Example 5] | 1.851 | 0.001414 | 0.9577 (μg/mL)h | – | – |
| CCN(CC)c1ncc(N(C)S(=O)(=O)c2cc(F)cc(F)c2)c(N[C@@H](Cc2ccc(OC(=O)N(C)C)cc2)C(=O)O)n1 [Example 15, 2-{2-diethylamino-5-[(3.5-difluorobenzenesulfonyl)methylamino]pyrimidin-4-ylamino}-3-(4-dimethylcarbamoyloxypheyl) propionic acid] | – | – | 0.2098 (μg/mL)h | 0.205 | 0.00151 |
